Laboratory results: US20230265151A1, “GIP/GLP1 CO-AGONIST COMPOUNDS” (priority 2020, published 2023)

What was measured:
[1] = target: T1, hGCGR (Homo sapiens, UniProt P47871); experiment: Functional cAMP formation (HTRF) in HEK-293 clonal cells expressing hGCGR, 0.1% bovine casein, without or with 1.0% human serum albumin; format: cell-based; settings: cAMP, incubated at 37° C., 0.1% bovine casein (no human serum albumin); geometric mean; read-out: hGCGR EC50, nM (SEM, n)
T1 construct: expressed in transfected cells
T1 sequence (P47871 26-477): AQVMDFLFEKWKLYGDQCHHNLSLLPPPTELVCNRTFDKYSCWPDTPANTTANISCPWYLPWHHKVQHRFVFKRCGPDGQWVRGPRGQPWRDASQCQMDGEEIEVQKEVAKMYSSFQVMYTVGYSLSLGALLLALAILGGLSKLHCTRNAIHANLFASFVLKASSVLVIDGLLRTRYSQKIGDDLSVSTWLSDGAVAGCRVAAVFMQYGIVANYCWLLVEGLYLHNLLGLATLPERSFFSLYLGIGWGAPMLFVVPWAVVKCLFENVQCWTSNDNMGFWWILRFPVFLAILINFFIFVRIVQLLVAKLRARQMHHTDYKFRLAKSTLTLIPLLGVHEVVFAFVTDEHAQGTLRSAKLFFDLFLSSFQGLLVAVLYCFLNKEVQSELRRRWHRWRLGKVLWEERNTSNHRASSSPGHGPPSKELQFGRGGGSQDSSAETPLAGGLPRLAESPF
Procedure, shortened: (§1)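 Cells were stimulated with peptide for 30 min at 37° C, then intracellular cAMP was measured by competitive HTRF (665/620 nm ratio) and converted to nM using a cAMP standard curve. Relative EC50 and Emax came from four-parameter logistic fits of percent maximal response against peptide concentration.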

[2] = target: T2, hGIPR (Homo sapiens, UniProt P48546); experiment: Functional cAMP formation (HTRF) in HEK-293 clonal cells expressing hGIPR, 0.1% bovine casein, without or with 1.0% human serum albumin; format: cell-based; settings: for EC50: cAMP, incubated at 37° C., 0.1% bovine casein (no human serum albumin), geometric mean, read-out: hGIPR EC50, nM (SEM, n); for Emax: HEK293, percent of maximal response to GIP(1-42)NH2, 37° C., 0.1% bovine casein, arithmetic mean, read-out: hGIPR Emax, % ± SEM
T2 construct: expressed in transfected cells
T2 sequence (P48546 22-466): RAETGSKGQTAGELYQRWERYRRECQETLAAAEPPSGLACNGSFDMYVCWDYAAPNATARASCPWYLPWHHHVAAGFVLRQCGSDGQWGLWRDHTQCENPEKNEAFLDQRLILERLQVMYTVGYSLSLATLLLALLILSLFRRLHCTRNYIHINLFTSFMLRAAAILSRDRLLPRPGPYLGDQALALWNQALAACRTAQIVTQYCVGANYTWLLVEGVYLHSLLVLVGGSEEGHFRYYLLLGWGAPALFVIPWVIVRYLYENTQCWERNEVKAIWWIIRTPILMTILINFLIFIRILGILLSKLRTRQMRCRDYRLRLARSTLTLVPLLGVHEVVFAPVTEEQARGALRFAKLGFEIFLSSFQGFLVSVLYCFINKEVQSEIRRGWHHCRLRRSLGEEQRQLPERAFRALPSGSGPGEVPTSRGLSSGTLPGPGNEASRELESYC
Procedure, shortened: as §1

## CC[C@H](C)[C@H](NC(=O)[C@H](CC(C)C)NC(=O)[C@](C)(Cc1ccc(O)cc1)NC(=O)[C@@H](CCC(=O)O)NC(=O)[C@@H](NC(=O)[C@H](Cc1ccccc1)NC(=O)[C@H](CCC(=O)O)NC(=O)C(C)(C)NC(=O)[C@H](CCC(N)=O)NC(=O)[C@H](C)NC(=O)[C@H](CCCCNC(=O)COCCOCCNC(=O)COCCOCCNC(=O)CC[C@H](NC(=O)CCCc1ccc(C(C)(C)C)cc1)C(=O)O)NC(=O)[C@H](CCCN)NC(=O)[C@H](CC(=O)O)NC(=O)[C@H](CC(C)C)NC(=O)[C@](C)(CC(C)C)NC(=O)[C@@H](NC(=O)[C@H](CO)NC(=O)[C@H](Cc1ccncc1)NC(=O)[C@H](CC(=O)O)NC(=O)[C@H](CO)NC(=O)[C@@H](NC(=O)[C@](C)(Cc1ccccc1F)NC(=O)[C@@H](NC(=O)CNC(=O)[C@H](CCC(=O)O)NC(=O)C(C)(C)NC(=O)[C@@H](N)Cc1ccc(O)cc1)[C@@H](C)O)[C@@H](C)O)[C@@H](C)CC)[C@@H](C)CC)C(=O)N[C@@H](CCC(=O)O)C(=O)NCC(=O)N[C@@H](CCCCNC(=O)COCCOCCNC(=O)COCCOCCNC(=O)CC[C@H](NC(=O)CCCc1ccc(C(C)(C)C)cc1)C(=O)O)C(=O)N1CCC[C@H]1C(=O)N[C@@H](CO)C(=O)N[C@@H](CO)C(=O)NCC(=O)N[C@@H](C)C(=O)N1CCC[C@H]1C(=O)N1CCC[C@H]1C(=O)N1CCC[C@H]1C(=O)N[C@@H](CO)C(N)=O [Example 134]
[1]
  EC50: > 9950 nM
[2]
  EC50: 0.0238 nM

## CCCCCCCCCCCC(=O)N[C@@H](CCC(=O)NCCOCCOCC(=O)NCCOCCOCC(=O)NCCCC[C@H](NC(=O)[C@H](CCCN)NC(=O)[C@H](CC(=O)O)NC(=O)[C@H](CC(C)C)NC(=O)[C@](C)(CC(C)C)NC(=O)[C@@H](NC(=O)[C@H](CO)NC(=O)[C@H](CCCCNC(=O)COCCOCCNC(=O)COCCOCCNC(=O)CC[C@H](NC(=O)CCCCCCCCCCC)C(=O)O)NC(=O)[C@H](CC(=O)O)NC(=O)[C@H](CO)NC(=O)[C@@H](NC(=O)[C@](C)(Cc1ccccc1F)NC(=O)[C@@H](NC(=O)CNC(=O)[C@H](CCC(=O)O)NC(=O)C(C)(C)NC(=O)[C@@H](N)Cc1ccc(O)cc1)[C@@H](C)O)[C@@H](C)O)[C@@H](C)CC)C(=O)N[C@@H](C)C(=O)N[C@@H](CCC(N)=O)C(=O)NC(C)(C)C(=O)N[C@@H](CCC(=O)O)C(=O)N[C@@H](Cc1ccccc1)C(=O)N[C@H](C(=O)N[C@H](CCC(=O)O)C(=O)N[C@@](C)(Cc1ccc(O)cc1)C(=O)N[C@@H](CC(C)C)C(=O)N[C@H](C(=O)N[C@@H](CCC(=O)O)C(=O)NCC(=O)NCC(=O)N1CCC[C@H]1C(=O)N[C@@H](CO)C(=O)N[C@@H](CO)C(=O)NCC(=O)N[C@@H](C)C(=O)N1CCC[C@H]1C(=O)N1CCC[C@H]1C(=O)N1CCC[C@H]1C(=O)N[C@@H](CO)C(N)=O)[C@@H](C)CC)[C@@H](C)CC)C(=O)O [Example 136]
[1]
  EC50: > 9950 nM
[2]
  Emax: 97.4 ± 4.23%

## CC[C@H](C)[C@H](NC(=O)[C@H](CC(C)C)NC(=O)[C@](C)(Cc1ccc(O)cc1)NC(=O)[C@@H](CCC(=O)O)NC(=O)[C@@H](NC(=O)[C@H](Cc1ccccc1)NC(=O)[C@H](CCC(=O)O)NC(=O)C(C)(C)NC(=O)[C@H](CCC(N)=O)NC(=O)[C@H](C)NC(=O)[C@H](CCCCNC(=O)COCCOCCNC(=O)COCCOCCNC(=O)CC[C@H](NC(=O)CCCCCCCCCCCCC(=O)O)C(=O)O)NC(=O)[C@H](CCCN)NC(=O)[C@H](CC(=O)O)NC(=O)[C@H](CC(C)C)NC(=O)[C@](C)(CC(C)C)NC(=O)[C@@H](NC(=O)[C@H](CO)NC(=O)[C@H](Cc1ccco1)NC(=O)[C@H](CC(=O)O)NC(=O)[C@H](CO)NC(=O)[C@@H](NC(=O)[C@](C)(Cc1ccccc1F)NC(=O)[C@@H](NC(=O)CNC(=O)[C@H](CCC(=O)O)NC(=O)C(C)(C)NC(=O)[C@@H](N)Cc1ccc(O)cc1)[C@@H](C)O)[C@@H](C)O)[C@@H](C)CC)[C@@H](C)CC)C(=O)N[C@@H](CCC(=O)O)C(=O)NCC(=O)NCC(=O)N[C@@H](CCCCNC(=O)COCCOCCNC(=O)COCCOCCNC(=O)CC[C@H](NC(=O)CCCCCCCCCCCCC(=O)O)C(=O)O)C(=O)N[C@@H](CO)C(=O)N[C@@H](CO)C(=O)NCC(=O)N[C@@H](C)C(=O)N1CCC[C@H]1C(=O)N1CCC[C@H]1C(=O)N1CCC[C@H]1C(=O)N[C@@H](CO)C(N)=O [Example 143]
[1]
  EC50: > 9950 nM
[2]
  Emax: 95%
  EC50: 0.022 nM

## CC[C@H](C)[C@H](NC(=O)[C@H](CC(C)C)NC(=O)[C@](C)(Cc1ccc(O)cc1)NC(=O)[C@@H](CCC(=O)O)NC(=O)[C@@H](NC(=O)[C@H](Cc1ccccc1)NC(=O)[C@H](CCC(=O)O)NC(=O)C(C)(C)NC(=O)[C@H](CCC(N)=O)NC(=O)[C@H](C)NC(=O)[C@H](CCCCNC(=O)COCCOCCNC(=O)COCCOCCNC(=O)CC[C@H](NC(=O)CCCCCCCCCCCCC(=O)O)C(=O)O)NC(=O)[C@H](CCCN)NC(=O)[C@H](CC(=O)O)NC(=O)[C@H](CC(C)C)NC(=O)[C@](C)(CC(C)C)NC(=O)[C@@H](NC(=O)[C@H](CO)NC(=O)[C@H](Cc1ccsc1)NC(=O)[C@H](CC(=O)O)NC(=O)[C@H](CO)NC(=O)[C@@H](NC(=O)[C@](C)(Cc1ccccc1F)NC(=O)[C@@H](NC(=O)CNC(=O)[C@H](CCC(=O)O)NC(=O)C(C)(C)NC(=O)[C@@H](N)Cc1ccc(O)cc1)[C@@H](C)O)[C@@H](C)O)[C@@H](C)CC)[C@@H](C)CC)C(=O)N[C@@H](CCC(=O)O)C(=O)NCC(=O)NCC(=O)N[C@@H](CCCCNC(=O)COCCOCCNC(=O)COCCOCCNC(=O)CC[C@H](NC(=O)CCCCCCCCCCCCC(=O)O)C(=O)O)C(=O)N[C@@H](CO)C(=O)N[C@@H](CO)C(=O)NCC(=O)N[C@@H](C)C(=O)N1CCC[C@H]1C(=O)N1CCC[C@H]1C(=O)N1CCC[C@H]1C(=O)N[C@@H](CO)C(N)=O [Example 146]
[1]
  EC50: > 9950 nM
[2]
  Emax: 76.5%
  EC50: 0.0198 nM

## CC[C@H](C)[C@H](NC(=O)[C@H](CC(C)C)NC(=O)[C@](C)(Cc1ccc(O)cc1)NC(=O)[C@@H](CCC(=O)O)NC(=O)[C@@H](NC(=O)[C@H](Cc1ccccc1)NC(=O)[C@H](CCC(=O)O)NC(=O)C(C)(C)NC(=O)[C@H](CCC(N)=O)NC(=O)[C@H](C)NC(=O)[C@H](CCCCNC(=O)COCCOCCNC(=O)COCCOCCNC(=O)CC[C@H](NC(=O)CCCCCCCCCCCCC(=O)O)C(=O)O)NC(=O)[C@H](CCCN)NC(=O)[C@H](CC(=O)O)NC(=O)[C@H](CC(C)C)NC(=O)[C@](C)(CC(C)C)NC(=O)[C@@H](NC(=O)[C@H](CO)NC(=O)[C@H](Cc1ccncc1)NC(=O)[C@H](CC(=O)O)NC(=O)[C@H](CO)NC(=O)[C@@H](NC(=O)[C@](C)(Cc1ccccc1F)NC(=O)[C@@H](NC(=O)CNC(=O)[C@H](CCC(=O)O)NC(=O)C(C)(C)NC(=O)[C@@H](N)Cc1ccc(O)cc1)[C@@H](C)O)[C@@H](C)O)[C@@H](C)CC)[C@@H](C)CC)C(=O)N[C@@H](CCC(=O)O)C(=O)NCC(=O)N[C@@H](CCCN)C(=O)N[C@@H](CCCCNC(=O)COCCOCCNC(=O)COCCOCCNC(=O)CC[C@H](NC(=O)CCCCCCCCCCCCC(=O)O)C(=O)O)C(=O)N[C@@H](CO)C(=O)N[C@@H](CO)C(=O)NCC(=O)N[C@@H](C)C(=O)N1CCC[C@H]1C(=O)N1CCC[C@H]1C(=O)N1CCC[C@H]1C(=O)N[C@@H](CO)C(N)=O [Example 152]
[1]
  EC50: > 9950 nM
[2]
  Emax: 97.9 ± 3.25%
